Laboratory results reported in US10576096B2, “Tumor-selective combination therapy” (priority 2013, dated 2020).
≈ marks a conversion by molar mass, not a printed value. Where “and” joins values, the source holds several entries; their conditions need not be identical. Equal values may be shown once.

Columns and labels:
[1] = system: A549 NSCLC cells or MiaPaCa-2 pancreatic cancer cells; assay: Sensitivity enhancement: PARP1 inhibitors combined with β-lapachone or DNQ, relative survival; format: cell-based, human; details: 10 = one log kill, 100 = two logs kill; for Sensitivity Enhancement (change in survival) with Deoxynyboquinone (DNQ): nontoxic DNQ (0.02 μM A549, 0.025 μM MiaPaca-2) + optimal dose (15 μM) of PARP1 inhibitor; for Sensitivity Enhancement (change in survival) with β-Lapachone: nontoxic β-lapachone (3 μM A549, 2 μM Mia Paca2) + optimal dose (15 μM) of PARP1 inhibitor
Description: Mia PaCa-2 cells were treated for 2 hours with the inhibitors noted in FIG. 30 and then with DNQ+the inhibitors (all at 15 μM) for 2 hours.

[2] = system: A549 and Mia PaCa-2 cells; assay: AG014699 alone, lethality in BRCA1 wild-type cancer cells; format: cell-based; details: drug alone
From the text: FIGS. 33A-D. AG014699 enhances the NQO1-dependent lethality of ß-lapachone in A549 NSCLC cells.
AG014699 enhances the NQO1-dependent lethality of ß-lapachone in A549 NSCLC cells (FIG. 33).

BRCA1−/− CAPAN-1 cells = assay: AG014699 alone, synthetic lethality control; format: cell-based
PARP1 = assay: PAR formation (PARP1 inhibition) in cells treated with NQO1 bioactivatable drug plus inhibitor; format: cell-based; details: inhibitors at 15 μM
in vivo = details: NOD/SCID, mouse, iv
[3] = system: NOD/SCID mice injected with 3LL-Luc cells; assay: DNQ derivatives pilot study of maximum tolerated dose (MTD); details: 3 NOD/SCID mice
breast cancer cells = assay: IB-DNQ (DNQ87) lethality in breast cancer cells; format: cell-based; details: NQO1-dependent
From the text: It is effective against breast cancer cells in an NQO1-dependent manner, as well as triple-negative breast cancer cells (A-F, for various cell types).
Unlike β-lapachone (ß-lap), efficacy of DNQ87 increases in an NQO1-dependent manner and the therapeutic window is larger (FIG. 14). […] (C) PARP1 hyperactivation caused by DNQ87 exposure measured by PAR-PARP1 formation, highlighted by μ-calpain-mediated p53 cleavage (C) and atypical cleavage of PARP1 to ^˜60 kDa proteolytic fragments during cell death (D). DNQ87 also causes DNA lesions (DNA double strand breaks) in a delayed manner, monitored by gamma-H2AX, phosphorylation of ATM at ser1981, and phosphorylation of DNA-PKcs at site Thr1892 (FIG. 16).

[4] = Aqueous solubility in PBS pH 7.4 by LC-MS; format: physicochemical; details: pH 7.4 PBS, 30 min sonication, filtered
Description: The aqueous solubility of DNQ at pH 7.4 in phosphate buffered saline (PBS) was measured by LC-MS. DNQ was sonicated for 30 minutes in PBS then undissolved solid was removed by filtration through a 0.45 μm syringe filter and the filtrate was analyzed by LC-MS (λ=275 nm, ESI-TOF in negative mode). The optimal sonication time was determined by sonicating DNQ for 1, 5, 10, and 30 minutes. While the concentration of DNQ in solution increased substantially between 1, 5, and 10 minutes, there was only a minor difference between 10 and 30 minutes. During the 30 minute sonication the water bath warmed to 45° C. (samples were cooled to room temperature before filtration). A calibration curve was generated from 1-100 μM by dissolving DNQ in methanol to a concentration of 500 μM and making dilutions of this stock in 80:20 water:methanol. The calibration curve (measure by UV absorbance) was linear over this range; 1 μM was approximately the limit of detection. […] The solution was very pale yellow.

[5] = Formulation of DNQ compounds in HPβCD (solubility, solution stability); format: physicochemical
From the text: This same neutral solution of DNQ in HPβCD cannot be made directly (i.e. without pH adjustment). […] The only proton on DNQ that might reasonably be deprotonated in aqueous base is the N—H. Although the acidity of the N—H bond of DNQ has not been measured, it has been measured for a derivative of DNQ and found to have a pKa of 8.0.
The protocol for formulating DNQ compounds in HPβCD is as follows: the DNQ compound is slurried in a 20% solution of HPβCD in pH 7.4 PBS and the pH is then increased by the addition of 10 M NaOH to induce dissolution of the DNQ compound. The pH is returned to pH 7.5-8.0 by the careful addition of 1 M HCl. A 3.3 mM solution of the DNQ compound can be made by this method which is stable at least 24 hours. This represents a 30-fold increase in solubility of DNQ over PBS alone. We initially chose a 20% HPβCD solution.

[6] = system: NOD/SCID mice injected with 3LL-Luc cells; details: mouse, in vivo, iv
[7] = system: Mia Paca2 pancreatic cancer cells; assay: Methoxyamine plus ß-lapachone lethality (colony forming assays); format: cell-based; details: nonlethal doses of methoxyamine
Description: FIGS. 9A-F. Methoxyamine (MeOX) enhances β-lap-induced NQO1-driven lethality. Mia Paca-2 cells were treated with indicated doses of β-lap+/−MeOX (12 mM), or β-lap alone for 2 hours. Endpoints examined: (A) Colony forming assays show synergy of MeOX+ß-lap; (B) MeOX treatment modifies AP sites induced by β-lap in Mia Paca-2 cells; (C) MeOX enhances β-lap-induced ATP loss; (D) MeOX blocks ATP recovery after sublethal β-lap doses; (E) β-lap+MeOX co-treatment enhances γH2AX foci formation. […] Dicoumarol (DIC, 50 μM, 2 h) blocked synergy.
(§1) B and C, Methoxyamine (MeOX) is an AP-site modifying chemical that is nontoxic to >100 mM as measured by relative survival and ATP loss. Optimal concentrations in combination with NQO1 bioactivatable drugs are between 6-12 mM. FIG. 21 illustrates Proof of Principle studies. A. Methoxyamine (MeOX) augments ß-lapachone ß-lap)-induced lethality in MiaPaca2 pancreatic cancer cells. B. Addition of MeOX modifies AP sites and therefore decreases signal of AP site formation in ß-lap+MeOX exposed cells. MeOX dose was 12 mM, ß-lap Dose was 6 μM. C,D. XRCC1 is a scaffolding protein that enables base excision repair (BER). Elimination of XRCC1 causes elevated AP sites and DNA single strand breaks, at which PARP1 can bind and become activated/hyperactivated. Knockdown of XRCC1 (C) enhances the lethality of ß-lapachone treatment.

[8] = system: Mia Paca2 pancreatic cancer cells; assay: Methoxyamine alone: relative survival and ATP loss; format: cell-based
Description: FIGS. 20A-C. Determination of lethal vs. sublethal doses of methoxyamine (MeOX or MX, as indicated); A, MeOX with β-lapachone; B, MeOX; C, MeOX.
as §1

A549 NSCLC cells = assay: ß-lapachone nontoxic vs. lethal dose, 2 h; format: cell-based, human
Description: FIGS. 46A-B. DNA damage via combinatorial treatment. (A) A549 NSCLC cells were pre-treated with or without Rucaparib (AG014699) and then exposed to a nontoxic dose of ß-lapachone (3 μM) at the concentrations indicated with or without the same PARP1 inhibitor. Cells were also exposed to a lethal dose of ß-lapachone (8 μM). Cells were then analyzed by neutral comet assays and DNA damage graphed in (B).
A459 NSCLC cells were pretreated with 15 μM AG014699 for 2 hours, then exposed to the same concentration of AG014699+various concentrations of DNQ87 for 2 hours as indicated (FIG. 45). Cells were then washed free of drug and relative survival performed as previously described (Huang et al., Cancer Res., 2012). Cells treated in this manner by nontoxic doses of ß-lap show enhanced DNA lesion formation, equivalent to DNA lesions formed by a lethal dose of ß-lap (8 μM, 2 hours) (FIG. 46).

NQO1 = NQO1 (Homo sapiens, UniProt P15559); details: in two minutes; cited from earlier work
[9] = system: MIA PaCa-2 tumor xenografts; assay: Antitumor efficacy in tumor xenografts; format: in vivo, mice; details: β-lap-HPβ-CD at 20 or 30 mg/kg, iv
Description: (A) Body weight changes of mice bearing orthotopic MIA PaCa-2 tumors. (B) Kaplan-Meier survival for pancreatic antitumor efficacy experiments described in (A). Log-rank analyses were performed comparing survival curves (***p<0.0001) for HPβ-CD vs. β-lap-HPβ-CD at 20 or 30 mg/kg, iv. Results are combined survival data from three similar experiments. (C) Bioluminescent images (BLI) of mice bearing spleen-implanted pancreas cancers before and after treatment with HPβ-CD or β-lap-HPβ-CD (Arq761) at 20 or 30 mg/kg, iv. (D) Quantification of pancreatic tumor burden. BLI (photons per second) were determined before and 12 days post-therapy with HPβ-CD or β-lap-HPβ-CD at 20 or 30 mg/kg, iv. Results are means, +SE (n=5). Student's t tests (***p<0.005) were performed comparing HPβ-CD vs. β-lap-HPβ-CD at 20 or 30 mg/kg, iv. V, Vehicle (HPβ-CD).
Altering BER or SSB repair can enhance NQO1 bioactivatable drug efficacy in a tumor-selective manner. siRNA-mediated knockdown of the Ogg1 glycosylase renders s-lap-treated pancreatic cancer cells resistant to ß-lapachone (FIG. 6), however NQO1 bioactivatable drugs cause SSBs and base lesions in a tumor-specific manner, thus they can be used to make DNA repair inhibitors tumor-selective (FIG. 7). PARP1 inhibitors synergize with NQO1 bioactivatable drugs for enhanced efficacy in NQO1+ cancer cells, such as pancreatic cancer cells (FIG. 8). […]

Mia PaCa-2 cells = assay: ß-lapachone lethal vs. sublethal doses, 2 h treatment; format: cell-based; details: listed as ß-lapachone
Description: MeOX, 12 mM; Dicoumarol, NQO1 inhibitor, 50 μM; ß-lapachone doses, indicated or 2 μM. For Mia Paca2 cells, 2-2.5 μM is sublethal, 6 μM is lethal. H2O2 dose was 500 μM, 2 h. All treatments were 2 h in duration. Cells were treated 2× with MeOX, as a 2 h pretreatment and then for 2 h in combination with ß-lap where applicable.
Addition of Methoxyamine (MeOX) prevents ATP recovery responses in ß-lap-treated Mia PaCa-2 cells at lethal and sublethal doses (FIG. 24). Lethal doses of ß-lapachone were 6 and 4 μM, whereas 3.0 and 2.5 μM are sublethal doses of ß-lapachone (ß-lap).

NQO1, sequence (P15559 whole entry): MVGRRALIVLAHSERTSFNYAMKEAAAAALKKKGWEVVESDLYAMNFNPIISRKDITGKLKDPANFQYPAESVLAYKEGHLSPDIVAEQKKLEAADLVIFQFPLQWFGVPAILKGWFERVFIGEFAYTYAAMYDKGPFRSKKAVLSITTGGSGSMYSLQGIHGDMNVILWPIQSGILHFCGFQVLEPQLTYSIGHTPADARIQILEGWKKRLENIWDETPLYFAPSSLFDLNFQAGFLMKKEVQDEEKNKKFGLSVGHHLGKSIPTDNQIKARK

C[C@]1(c2nc3c(C(N)=O)cccc3[nH]2)CCCN1 [ABT-888, Veliparib]
Sensitivity Enhancement (change in survival) with Deoxynyboquinone (DNQ) [1]: 15
Sensitivity Enhancement (change in survival) with β-Lapachone [1]: 10

CN(C)Cc1ccc(-c2nc3cccc4c3n2CCNC4=O)cc1 [AG14361]
Sensitivity Enhancement (change in survival) with Deoxynyboquinone (DNQ) [1]: 10
Sensitivity Enhancement (change in survival) with β-Lapachone [1]: 5

CNCc1ccc(-c2[nH]c3cc(F)cc4c3c2CCNC4=O)cc1 [AG-014699, Rucaparib]
Sensitivity Enhancement (change in survival) with Deoxynyboquinone (DNQ) [1]: 100
Sensitivity Enhancement (change in survival) with β-Lapachone [1]: 10
response of BRCA1 wild-type cells to the PARP1 inhibitor alone [2]: completely resistant
lethality of drug alone (BRCA1−/− CAPAN-1 cells): synthetic lethality

O=C(c1cc(Cc2n[nH]c(=O)c3ccccc23)ccc1F)N1CCN(C(=O)C2CC2)CC1 [AZD2281, Olaparib]
Sensitivity Enhancement (change in survival) with Deoxynyboquinone (DNQ) [1]: 20
Sensitivity Enhancement (change in survival) with β-Lapachone [1]: 10

NC(=O)c1ccc(I)c([N+](=O)[O-])c1 [BSI-201, Iniparib]
Sensitivity Enhancement (change in survival) with Deoxynyboquinone (DNQ) [1]: 4
Sensitivity Enhancement (change in survival) with β-Lapachone [1]: 3
inhibition of PAR formation (PARP1): not an efficacious PARP1 inhibitor

Cc1cc(=O)[nH]c2c1C(=O)c1c(C)cc(=O)n(CCC(C)(C)C)c1C2=O [Compound 9-251]
MTD at 5 injections, 1x every other day (in vivo): 20 mg/kg
Dead mice (5 IV.) ([3]; 20 mg/kg): 0

CCCn1c2c(c(C)cc1=O)C(=O)c1c(C)cc(=O)[nH]c1C2=O [Compound 10-41]
MTD at 5 injections, 1x every other day (in vivo): 7 mg/kg
Dead mice (5 IV.) ([3]; 15 mg/kg): 3

Cc1cc(=O)[nH]c2c1C(=O)c1c(C)cc(=O)n(CC(C)C)c1C2=O [Compound 87]
MTD at 5 injections, 1x every other day (in vivo): ~16 mg/kg
effective doses relative to ß-lapachone and DNQ (breast cancer cells): works at much lower doses versus ß-lapachone and at doses equivalent to the parental DNQ compound
Dead mice (5 IV.) ([3]; 14 mg/kg): 0

CCc1cc(=O)n(C)c2c1C(=O)c1c(C)cc(=O)[nH]c1C2=O [Compound 107]
MTD at 5 injections, 1x every other day (in vivo): 8 mg/kg
Dead mice (5 IV.) ([3]; 10 mg/kg): 1

Cc1cc(=O)[nH]c2c1C(=O)c1c(C)cc(=O)n(C)c1C2=O [DNQ, Deoxynyboquinone]
solubility in PBS [4]: 115 µM (≈ 32.7 µg/mL)
stability of HPβCD solution ([5]; 3.3 mM in 20% HPβCD): at least 24 hours
increase in solubility over PBS alone ([5]; 20% HPβCD): 30 fold
concentration of solution in HPβCD ([5]; 20% HPβCD in pH 7.4 PBS, pH raised with NaOH then returned to 7.5-8.0): 3300 µM
concentration of solution in HPβCD ([5]; 40% HPβCD, extrapolated from linear increase with HPβCD): 6600 µM
MTD [6]: 6
Dead mice (5 IV.) ([3]; 7.5 mg/kg): 2

O=c1[nH]cnc2c1ncn2[C@@H]1O[C@H](CO)[C@@H](O)[C@H]1O [INO-1001]
Sensitivity Enhancement (change in survival) with Deoxynyboquinone (DNQ) [1]: 10
Sensitivity Enhancement (change in survival) with β-Lapachone [1]: 7

CON [Methoxyamine, methoxyamine]
lethality in combination with ß-lapachone [7]: synergistic lethality
optimal concentration in combination with NQO1 bioactivatable drugs [8]: 6 to 12 mM
nontoxic concentration ([8]; measured by relative survival and ATP loss): > 100 mM

CC1(C)CCC2=C(O1)c1ccccc1C(=O)C2=O [β-Lapachone, β-lapachone]
nontoxic dose (A549 NSCLC cells): 3 µM
lethal dose (A549 NSCLC cells; 2 hours): 8 µM
superoxide generated per mole of compound (NQO1): ~120 mol
antitumor efficacy [9]: significant antitumor efficacy
sublethal dose (Mia PaCa-2 cells): 2 to 2.5 µM and 3.0 µM and 2.5 µM
